# Source: patent publication US9012398B2, “Acylated exendin-4 compounds” (priority 2006, dated 2015)
# Read-outs that look alike come from different tables or passages of the source. Starred links: 1 amine or outer side, 2 acyl side, 3 side chain; linkers in the order of their positions; H or OH if unused. Residues, ends and D or L forms follow the SMILES beside them. Groups on a side chain read outwards from the residue. *: point of attachment. γGlu = O=C(O)[C@H](CCC(=O)[*:2])N[*:1]; Stearoyl = CCCCCCCCCCCCCCCCCC(=O)*; Palmitoyl = CCCCCCCCCCCCCCCC(=O)*; AEEA = NCCOCCOCC(=O)O
# Biological target: T1, human GLP-1 receptor (Homo sapiens, UniProt P43220)
# T1 construct: expressed in transfected cells; host or cells: BHK cells, clone BHK-467-12A; plasma membrane preparation
# Assay: Functional receptor assay: cAMP formation in plasma membranes of BHK cells expressing the cloned human GLP-1 receptor (GLP1cAMPma)
# Assay type: biochemical
# Method: The term “insulinotropic agent” as used herein means a compound which is an agonist of the human GLP-1 receptor, i.e. a compound which stimulates the formation of cAMP in a suitable medium containing the human GLP-1 receptor (one such medium disclosed below). The potency of an insulinotropic agent is determined by calculating the EC50 value from the dose-response curve as described below.
# The cells were washed twice in phosphate buffered saline and harvested with Versene. Plasma membranes were prepared from the cells by homogenisation with an Ultraturrax in buffer 1 (20 mM HEPES-Na, 10 mM EDTA, pH 7.4). The homogenate was centrifuged at 48,000×g for 15 min at 4° C. The pellet was suspended by homogenization in buffer 2 (20 mM HEPES-Na, 0.1 mM EDTA, pH 7.4), then centrifuged at 48,000×g for 15 min at 4° C. The washing procedure was repeated one more time. The final pellet was suspended in buffer 2 and used immediately for assays or stored at −80° C.
# The functional receptor assay was carried out by measuring cyclic AMP (cAMP) as a response to stimulation by the insulinotropic agent. cAMP formed was quantified by the AlphaScreen™ cAMP Kit (Perkin Elmer Life Sciences). Incubations were carried out in half-area 96-well microtiter plates in a total volume of 50 μL buffer 3 (50 mM Tris-HCl, 5 mM HEPES, 10 mM MgCl2, pH 7.4) and with the following additions: 1 mM ATP, 1 μM GTP, 0.5 mM 3-isobutyl-1-methylxanthine (IBMX), 0.01% Tween-20, 0.1% BSA, 6 μg membrane preparation, 15 μg/mL acceptor beads, 20 μg/mL donor beads preincubated with 6 nM biotinyl-cAMP. […] GTP was freshly prepared for each experiment. The plate was incubated in the dark with slow agitation for three hours at room temperature followed by counting in the Fusion™ instrument (Perkin Elmer Life Sciences). Concentration-response curves were plotted for the individual compounds and EC50 values estimated using a four-parameter logistic model with Prism v. 4.0 (GraphPad, Carlsbad, Calif.).
# [1] = cAMP, membranes with human GLP-1 receptor, mean value, read-out: GLP1cAMPma (3693) [EC50 (nM)] Mean Value
# T1 sequence (P43220 24-463): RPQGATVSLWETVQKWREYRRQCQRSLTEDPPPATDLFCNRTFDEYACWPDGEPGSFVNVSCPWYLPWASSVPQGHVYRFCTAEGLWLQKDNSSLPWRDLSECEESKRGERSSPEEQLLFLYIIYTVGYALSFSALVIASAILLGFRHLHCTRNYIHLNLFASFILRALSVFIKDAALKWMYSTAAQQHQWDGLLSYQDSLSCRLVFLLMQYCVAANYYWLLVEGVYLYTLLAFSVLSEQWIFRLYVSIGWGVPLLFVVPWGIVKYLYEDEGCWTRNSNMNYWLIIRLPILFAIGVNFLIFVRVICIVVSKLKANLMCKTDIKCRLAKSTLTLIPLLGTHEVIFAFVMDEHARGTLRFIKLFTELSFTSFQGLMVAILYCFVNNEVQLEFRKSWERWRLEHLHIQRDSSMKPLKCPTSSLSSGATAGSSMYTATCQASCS
Structure (SMILES),EC50 [nM],EC50 [1] [nM]
CCCCCCCCCCCCCCCCCC(=O)NCCOCCOCC(=O)NCCOCCOCC(=O)NCCOCCOCC(=O)NCCCC[C@H](NC(=O)[C@@H]1CCCN1C(=O)CNC(=O)CNC(=O)[C@H](CCCNC(=N)N)NC(=O)[C@@H](NC(=O)[C@H](CC(C)C)NC(=O)[C@H](Cc1c[nH]c2ccccc12)NC(=O)[C@H](CCC(=O)O)NC(=O)[C@@H](NC(=O)[C@H](Cc1ccccc1)NC(=O)[C@H](CC(C)C)NC(=O)[C@H](CCCNC(=N)N)NC(=O)[C@@H](NC(=O)[C@H](C)NC(=O)[C@H](CCC(=O)O)NC(=O)[C@H](CCC(=O)O)NC(=O)[C@H](CCC(=O)O)NC(=O)[C@H](CC(C)C)NC(=O)[C@H](CCC(N)=O)NC(=O)[C@H](CCCNC(=N)N)NC(=O)[C@H](CO)NC(=O)[C@H](CC(C)C)NC(=O)[C@H](CC(=O)O)NC(=O)[C@H](CO)NC(=O)[C@@H](NC(=O)[C@H](Cc1ccccc1)NC(=O)[C@@H](NC(=O)CNC(=O)[C@H](CCC(=O)O)NC(=O)CNC(=O)[C@@H](N)Cc1c[nH]cn1)[C@@H](C)O)[C@@H](C)O)C(C)C)[C@@H](C)CC)C(C)C)C(=O)N[C@@H](CO)C(=O)NCC(=O)N[C@@H](C)C(=O)N1CCC[C@H]1C(=O)N1CCC[C@H]1C(=O)N1CCC[C@H]1C(=O)N[C@@H](CO)C(N)=O [Example 2] (H-HGEGTFTSDLSRQLEEEAVRLFIEWLVRGGPK([AEEA-AEEA-AEEA-Stearoyl])SGAPPPS-NH2),0.027,–
"CCCCCCCCCCCCCCCCCC(=O)NCCOCCOCC(=O)NCCOCCOCC(=O)NCCOCCOCC(=O)NCCCC[C@H](NC(=O)[C@@H](NC(=O)[C@H](CC(C)C)NC(=O)[C@H](Cc1c[nH]c2ccccc12)NC(=O)[C@H](CCC(=O)O)NC(=O)[C@@H](NC(=O)[C@H](Cc1ccccc1)NC(=O)[C@H](CC(C)C)NC(=O)[C@H](CCCNC(=N)N)NC(=O)[C@@H](NC(=O)[C@H](C)NC(=O)[C@H](CCC(=O)O)NC(=O)[C@H](CCC(=O)O)NC(=O)[C@H](CCC(=O)O)NC(=O)[C@H](CC(C)C)NC(=O)[C@H](CCC(N)=O)NC(=O)[C@H](CCCNC(=N)N)NC(=O)[C@H](CO)NC(=O)[C@H](CC(C)C)NC(=O)[C@H](CC(=O)O)NC(=O)[C@H](CO)NC(=O)[C@@H](NC(=O)[C@H](Cc1ccccc1)NC(=O)[C@@H](NC(=O)CNC(=O)[C@H](CCC(=O)O)NC(=O)CNC(=O)[C@@H](N)Cc1c[nH]cn1)[C@@H](C)O)[C@@H](C)O)C(C)C)[C@@H](C)CC)C(C)C)C(=O)NCC(=O)NCC(=O)N1CCC[C@H]1C(=O)N[C@@H](CO)C(=O)N[C@@H](CO)C(=O)NCC(=O)N[C@@H](C)C(=O)N1CCC[C@H]1C(=O)N1CCC[C@H]1C(=O)N1CCC[C@H]1C(=O)N[C@@H](CO)C(N)=O [Example 3, N-ε^28-(2-(2-(2-(2-(2-(2-(2-(2-(2-(Octadecanoylamino)ethoxy)ethoxy)acetylamino)ethoxy)ethoxy)acetyl-amino)ethoxy)ethoxy)acetyl))[Arg^12,Leu^14,Val^27,Lys^28 Exendin-4(1-39)amide] (H-HGEGTFTSDLSRQLEEEAVRLFIEWLVK([AEEA-AEEA-AEEA-Stearoyl])GGPSSGAPPPS-NH2; N-terminus assumed)",0.025,–
"CCCCCCCCCCCCCCCC(=O)N[C@@H](CCC(=O)NCCOCCOCC(=O)NCCOCCOCC(=O)NCCCC[C@H](NC(=O)[C@@H](NC(=O)[C@H](C)NC(=O)[C@H](CCC(=O)O)NC(=O)[C@H](CCC(=O)O)NC(=O)[C@H](CCC(=O)O)NC(=O)[C@H](CC(C)C)NC(=O)[C@H](CCC(N)=O)NC(=O)[C@H](CCCNC(=N)N)NC(=O)[C@H](CO)NC(=O)[C@H](CC(C)C)NC(=O)[C@H](CC(=O)O)NC(=O)[C@H](CO)NC(=O)[C@@H](NC(=O)[C@H](Cc1ccccc1)NC(=O)[C@@H](NC(=O)CNC(=O)[C@H](CCC(=O)O)NC(=O)CNC(=O)[C@@H](N)Cc1c[nH]cn1)[C@@H](C)O)[C@@H](C)O)C(C)C)C(=O)N[C@@H](CC(C)C)C(=O)N[C@@H](Cc1ccccc1)C(=O)N[C@H](C(=O)N[C@@H](CCC(=O)O)C(=O)N[C@@H](Cc1c[nH]c2ccccc12)C(=O)N[C@@H](CC(C)C)C(=O)N[C@@H](CCCNC(=N)N)C(=O)N[C@@H](CCCNC(=N)N)C(=O)NCC(=O)NCC(=O)N1CCC[C@H]1C(=O)N[C@@H](CO)C(=O)N[C@@H](CO)C(=O)NCC(=O)N[C@@H](C)C(=O)N1CCC[C@H]1C(=O)N1CCC[C@H]1C(=O)N1CCC[C@H]1C(=O)N[C@@H](CO)C(N)=O)[C@@H](C)CC)C(=O)O [Example 4, N-ε^20-[2-(2-[2-(2-[2-(2-[4-hexadecanoylamino-4(S)-carboxybutyrylamino]ethoxy)ethoxy]acetylamino)ethoxy]ethoxy)acetyl] [Arg^12,27,28,Leu^14,Lys^20]Exendin-4(1-39)amide] (H-HGEGTFTSDLSRQLEEEAVK([AEEA-AEEA-γGlu-Palmitoyl])LFIEWLRRGGPSSGAPPPS-NH2; N-terminus assumed)",–,0.027
"CCCCCCCCCCCCCCCC(=O)N[C@@H](CCC(=O)NCCOCCOCC(=O)NCCOCCOCC(=O)NCCCC[C@H](NC(=O)[C@H](CO)NC(=O)[C@H](CO)NC(=O)[C@@H]1CCCN1C(=O)CNC(=O)CNC(=O)[C@H](CC(N)=O)NC(=O)[C@H](CCCNC(=N)N)NC(=O)[C@H](CC(C)C)NC(=O)[C@H](Cc1c[nH]c2ccccc12)NC(=O)[C@H](CCC(=O)O)NC(=O)[C@@H](NC(=O)[C@H](Cc1ccccc1)NC(=O)[C@H](CC(C)C)NC(=O)[C@H](CCCNC(=N)N)NC(=O)[C@@H](NC(=O)[C@H](C)NC(=O)[C@H](CCC(=O)O)NC(=O)[C@H](CCC(=O)O)NC(=O)[C@H](CCC(=O)O)NC(=O)[C@H](CC(C)C)NC(=O)[C@H](CCC(N)=O)NC(=O)[C@H](CCCNC(=N)N)NC(=O)[C@H](CO)NC(=O)[C@H](CC(C)C)NC(=O)[C@H](CC(=O)O)NC(=O)[C@H](CO)NC(=O)[C@@H](NC(=O)[C@H](Cc1ccccc1)NC(=O)[C@@H](NC(=O)CNC(=O)[C@H](CCC(=O)O)NC(=O)CNC(=O)[C@@H](N)Cc1c[nH]cn1)[C@@H](C)O)[C@@H](C)O)C(C)C)[C@@H](C)CC)C(=O)N[C@@H](C)C(=O)N1CCC[C@H]1C(=O)N1CCC[C@H]1C(=O)N1CCC[C@H]1C(=O)N[C@@H](CO)C(N)=O)C(=O)O [Example 6, N-ε^34-[2-(2-[2-(2-[2-(2-[4-hexadecanoylamino-4(S)-carboxybutyrylamino]ethoxy)ethoxy]acetylamino)ethoxy]ethoxy)acetyl] [Arg^12,27,Leu^14,Lys^34]Exendin-4(1-39)amide] (H-HGEGTFTSDLSRQLEEEAVRLFIEWLRNGGPSSK([AEEA-AEEA-γGlu-Palmitoyl])APPPS-NH2; N-terminus assumed)",–,0.018
"CCCCCCCCCCCCCCCC(=O)N[C@@H](CCC(=O)NCCOCCOCC(=O)NCCCC[C@H](NC(=O)[C@H](CO)NC(=O)[C@H](CO)NC(=O)[C@@H]1CCCN1C(=O)CNC(=O)CNC(=O)[C@H](CC(N)=O)NC(=O)[C@H](CCCNC(=N)N)NC(=O)[C@H](CC(C)C)NC(=O)[C@H](Cc1c[nH]c2ccccc12)NC(=O)[C@H](CCC(=O)O)NC(=O)[C@@H](NC(=O)[C@H](Cc1ccccc1)NC(=O)[C@H](CC(C)C)NC(=O)[C@H](CCCNC(=N)N)NC(=O)[C@@H](NC(=O)[C@H](C)NC(=O)[C@H](CCC(=O)O)NC(=O)[C@H](CCC(=O)O)NC(=O)[C@H](CCC(=O)O)NC(=O)[C@H](CC(C)C)NC(=O)[C@H](CCC(N)=O)NC(=O)[C@H](CCCNC(=N)N)NC(=O)[C@H](CO)NC(=O)[C@H](CC(C)C)NC(=O)[C@H](CC(=O)O)NC(=O)[C@H](CO)NC(=O)[C@@H](NC(=O)[C@H](Cc1ccccc1)NC(=O)[C@@H](NC(=O)CNC(=O)[C@H](CCC(=O)O)NC(=O)CNC(=O)[C@@H](N)Cc1c[nH]cn1)[C@@H](C)O)[C@@H](C)O)C(C)C)[C@@H](C)CC)C(=O)N[C@@H](C)C(=O)N1CCC[C@H]1C(=O)N1CCC[C@H]1C(=O)N1CCC[C@H]1C(=O)N[C@@H](CO)C(N)=O)C(=O)O [Example 7, N-ε^34-[2-(2-[2-[4-hexadecanoylamino-4(S)-carboxybutyrylamino]ethoxy]ethoxy)acetyl][Arg^12,27,Leu^14,Lys^34] Exendin-4(1-39)amide] (H-HGEGTFTSDLSRQLEEEAVRLFIEWLRNGGPSSK([AEEA-γGlu-Palmitoyl])APPPS-NH2)",0.012,–
